Test results from patent US10059699B2, “Tetrahydroquinoline derivatives as bromodomain inhibitors” (GlaxoSmithKline Intellectual Property (No.2) Limited, priority 2014, dated 2018).
Marks after values point to notes of the source that are not given here.

Key:
TNFα = assay: LPS induced secretion of TNFα from whole blood; assay type: cell-based; conditions: human whole blood, LPS 200 ng/mL, n=4; read-out: pIC50, LPS induced TNFα secretion (converted)
Excerpt: Activation in whole blood of predominantly monocytic cells by agonists of toll-like receptors such as bacterial lipopolysaccharide (LPS) results in production of key inflammatory mediators, including TNFα. Such pathways are widely considered to be central to the pathophysiology of a range of auto-immune and inflammatory disorders.
Human Whole Blood from 2 donors (n=2) is collected using Sodium heparin as anti-coagulent (Wockhardt cat# FP1712) (10 units of heparin/mL of blood). Compounds were prepared as [10 mM] DMSO stocks and then diluted such that the top starting concentration was [1.4 mM] followed by 8×3-fold dilutions in DMSO. Final assay concentrations start at [10 μM] for all compounds. 1 μL diluted compound was added per well in a 96-well U bottom plate. 1 μL DMSO only was added to column 10 (+ve control) and 1-((2S,4R)-2-methyl-4-(phenylamino)-6-(4-(piperidin-1-ylmethyl)phenyl)-3,4-dihydroquinolin-1(2H)-yl)ethanone (for a preparation see Compound 28, J. Med. Chem. 2014, 57, 8111-8131, 1 μL, 1.4 mM) added to column 11 (−ve control). […] 150 μL of 2×MSD Read Buffer T (stock 4×MSD Read Buffer T was diluted 50:50 with de-ionised water) was then added to each well and the plates read on the MSD Sector Imager 6000. Concentration response curves for each compound were generated from the data using internal XC50 analysis and an IC50 value was calculated.

Immunoglobulin-1 (IgG1) = assay: TNP-KLH induced IgG1 production mouse assay; assay type: in vivo, mice; conditions: 30 mg/kg oral; for Day 14 IgG1: 14 day dosing, male CD1 mice; for % reduction in IgG1 from vehicle: day 14
Description: The compound was assayed for its ability to inhibit trinitrophenol-keyhole limpet hemocyanin (TNP-KLH) induced Immunoglobulin-1 (IgG1) production in mice. Male CD1 mice (Charles River Laboratories, 8 per group) received a single oral administration of compound (in 1% (w/v) methylcellulose, aq 400) either once every day (QD), once every other day (QOD) or once every 72 hours (QOED) over a 14 day dosing period. On day 1 of the study, each mouse received a single bolus intraperitoneal (ip) administration of TNP-KLH (100 μg/kg, T-5060-25, Lot #021562-06) 1 hour after oral administration of compound. Serial blood samples were collected at 1 hour post oral compound administration via tail veil on days 1, 4, 7, 9 and 11 or via cardiac puncture (terminal sample) on day 14 and the serum harvested from the blood samples was frozen at −80° C. On the day of analysis, the serum was thawed to room temperature and levels of IgG1 were measured using a TNP ELISA (developed in-house) and read on a SpectraMax 190 spectrophotometer (Molecular Devices, CA). The mean IgG1 values were generated and the mean percent IgG1 reduction on day 14 following treatment with compound was calculated compared to the corresponding vehicle treated group. Levels of significance were calculated by analysis of variance (ANOVA) followed by Dunnett's multiple comparison t-test using Graphpad Prism version 5.04 (Graphpad Software, San Diego, Calif.). Statistical differences were determined as […].

cytochrome P450 3A4 = cytochrome P450 3A4 (Homo sapiens, UniProt P08684); assay: Cytochrome P450 3A4 metabolism dependent inhibition; assay type: in vitro ADME
NMC11060 cells = assay: Mouse xenograft tumour assay (NMC); assay type: in vivo; conditions: QD for 21 days, NOD/SCID mouse, day 21
Description: 1×10^7 NMC11060 cells, in 200 μl of 75% matrigel, were injected subcutaneously into each NOD/SCID mouse. Randomised oral administration of vehicle formulation, 1% Methycellulose (MC), or compound was initiated from the day tumour volume reached between 160-301 mm^3. Tumour volume was then measured every third day until either 21 days post inoculation or tumour volume had surpassed approximately 1000 mm^3.
Tumour growth inhibition=100−mean tumor volume of treatment group/mean tumour volume of control group×100. P values are derived from coefficient of variation analysis using software PASS 12, comparing vehicle against drug treated group. Based on day 21,* p<0.05, **p<0.01 and ***p<0.001

Chain of cytochrome P450 3A4 (P08684 whole entry): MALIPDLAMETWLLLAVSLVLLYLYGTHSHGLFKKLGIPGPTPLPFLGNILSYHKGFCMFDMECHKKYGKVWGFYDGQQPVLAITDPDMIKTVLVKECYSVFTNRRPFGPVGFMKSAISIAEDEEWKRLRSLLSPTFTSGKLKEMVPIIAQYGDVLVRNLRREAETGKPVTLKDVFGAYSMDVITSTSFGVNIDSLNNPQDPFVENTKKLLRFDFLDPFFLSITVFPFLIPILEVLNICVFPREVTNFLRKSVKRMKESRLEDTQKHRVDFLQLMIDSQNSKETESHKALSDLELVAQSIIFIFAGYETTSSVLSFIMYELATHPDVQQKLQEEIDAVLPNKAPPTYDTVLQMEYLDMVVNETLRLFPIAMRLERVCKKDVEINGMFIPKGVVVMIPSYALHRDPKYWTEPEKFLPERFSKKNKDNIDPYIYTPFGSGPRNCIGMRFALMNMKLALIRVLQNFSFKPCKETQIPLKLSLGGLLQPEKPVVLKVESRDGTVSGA

IC50 (TNFα): 63.1 nM
SMILES: CC(=O)N1c2ccc(C(N)=O)cc2[C@H](Nc2ncc(Cl)cn2)C[C@@H]1C [Example 14, (2S,4R)-1-acetyl-4-((5-chloropyrimidin-2-yl)amino)-2-methyl-1,2,3,4-tetrahydroquinoline-6-carboxamide]
Day 14 IgG1 (Immunoglobulin-1 (IgG1); QD): 127 ng/mL | % reduction in IgG1 from vehicle (Immunoglobulin-1 (IgG1); QD): 98*** % | Day 14 IgG1 (Immunoglobulin-1 (IgG1); QOD): 373 ng/mL | % reduction in IgG1 from vehicle (Immunoglobulin-1 (IgG1); QOD): 93*** % | Day 14 IgG1 (Immunoglobulin-1 (IgG1); QOED (every 72 hours)): 3162 ng/mL | % reduction in IgG1 from vehicle (Immunoglobulin-1 (IgG1)): 41% | cytochrome P450 3A4 metabolism dependent inhibition (cytochrome P450 3A4): no cytochrome P450 3A4 metabolism dependent inhibition | % TGI (NMC11060 cells; 10 mg/kg/day PO): 51* % | % TGI (NMC11060 cells; 30 mg/kg/day PO): 93*** %
